Results as given in paper PMC4991450, “Protein arginine methyltransferase 1 may be involved in pregnane x receptor-activated overexpression of multidrug resistance 1 gene during acquired multidrug resistant” (Oncotarget, 2016).

These compounds were tested against Protein arginine methyltransferase 1 (PRMT1) (Homo sapiens, UniProt Q99873) (assay: Transzyme HMT PRMT1 fluorescence polarization enzyme assay, rescreened at […]).
Chain of Protein arginine methyltransferase 1 (PRMT1) (Q99873 whole entry): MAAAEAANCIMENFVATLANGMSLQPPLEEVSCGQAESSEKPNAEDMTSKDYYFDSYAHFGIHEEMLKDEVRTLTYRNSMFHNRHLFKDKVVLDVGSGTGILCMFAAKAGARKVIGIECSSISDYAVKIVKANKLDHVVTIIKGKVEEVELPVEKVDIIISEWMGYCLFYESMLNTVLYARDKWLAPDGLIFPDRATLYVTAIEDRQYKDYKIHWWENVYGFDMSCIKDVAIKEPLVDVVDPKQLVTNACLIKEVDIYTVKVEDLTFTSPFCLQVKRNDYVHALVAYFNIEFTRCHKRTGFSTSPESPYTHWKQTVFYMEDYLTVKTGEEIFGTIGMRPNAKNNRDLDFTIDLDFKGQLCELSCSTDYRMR
Assay type: biochemical
`CCOC(=O)C1=C(C)NC(C)=C(C(=O)OC)C1c1cccc(Cl)c1Cl` (centres unmarked) [felodipline] was tested, and the “Transzyme HMT PRMT1 fluorescence polarization enzyme assay, rescreened at 0-100” value was “Five compounds were found to inhibit PRMT1 activity, including rutin, isoquercitrin, salvianolic acid A (SAA), naproxen, and felodipline”.
For `O=c1c(O[C@@H]2O[C@H](CO)[C@@H](O)[C@H](O)[C@H]2O)c(-c2ccc(O)c(O)c2)oc2cc(O)cc(O)c12` [isoquercitrin], the “Transzyme HMT PRMT1 fluorescence polarization enzyme assay, rescreened at 0-100” value was “Five compounds were found to inhibit PRMT1 activity, including rutin, isoquercitrin, salvianolic acid A (SAA), naproxen, and felodipline”.
With `COc1ccc2cc([C@H](C)C(=O)O)ccc2c1` [naproxen] the “Transzyme HMT PRMT1 fluorescence polarization enzyme assay, rescreened at 0-100” value was “Five compounds were found to inhibit PRMT1 activity, including rutin, isoquercitrin, salvianolic acid A (SAA), naproxen, and felodipline”.
With `C[C@@H]1O[C@@H](OC[C@H]2O[C@@H](Oc3c(-c4ccc(O)c(O)c4)oc4cc(O)cc(O)c4c3=O)[C@H](O)[C@@H](O)[C@@H]2O)[C@H](O)[C@H](O)[C@H]1O` [rutin] the “Transzyme HMT PRMT1 fluorescence polarization enzyme assay, rescreened at 0-100” value was “Five compounds were found to inhibit PRMT1 activity, including rutin, isoquercitrin, salvianolic acid A (SAA), naproxen, and felodipline”.
For `O=C(/C=C/c1ccc(O)c(O)c1/C=C/c1ccc(O)c(O)c1)O[C@H](Cc1ccc(O)c(O)c1)C(=O)O` [salvianolic acid A], the “Transzyme HMT PRMT1 fluorescence polarization enzyme assay, rescreened at 0-100” value was “Five compounds were found to inhibit PRMT1 activity, including rutin, isoquercitrin, salvianolic acid A (SAA), naproxen, and felodipline”.
